Patent US12514938B2, “Fibroblast activation protein targeting peptides” (PERSPECTIVE THERAPEUTICS, INC., priority 2023, dated 2026)
*1 amine or outer side, *2 acyl side, *3 side chain or, on linkers, in order; H or OH if unused. Where a SMILES comes first, the peptide text is derived from it. Bridges are numbered along the chain shown (N, C = ends). The star is where a group is joined. X1 = NC(=O)CN1CCN(CC(=O)O)CCN(CC(=O)*)CCN(CC(=O)O)CC1; oXylylene = c1ccc(C[*:2])c(C[*:1])c1; PEG2 = NCCOCCOCCC(=O)O

Assays:
[1] = biological target: T1, Human Fibroblast Activation Protein (FAP) (Homo sapiens, UniProt Q12884); experiment: Enzyme inhibition assay against human FAP (substrate Z-GP-AMC), Example 1; assay type: biochemical; conditions: human FAP 5 ng/well, 50 μM Z-GP-AMC; Ki from IC50 by Cheng-Prusoff
T1 sequence (Q12884 1-760): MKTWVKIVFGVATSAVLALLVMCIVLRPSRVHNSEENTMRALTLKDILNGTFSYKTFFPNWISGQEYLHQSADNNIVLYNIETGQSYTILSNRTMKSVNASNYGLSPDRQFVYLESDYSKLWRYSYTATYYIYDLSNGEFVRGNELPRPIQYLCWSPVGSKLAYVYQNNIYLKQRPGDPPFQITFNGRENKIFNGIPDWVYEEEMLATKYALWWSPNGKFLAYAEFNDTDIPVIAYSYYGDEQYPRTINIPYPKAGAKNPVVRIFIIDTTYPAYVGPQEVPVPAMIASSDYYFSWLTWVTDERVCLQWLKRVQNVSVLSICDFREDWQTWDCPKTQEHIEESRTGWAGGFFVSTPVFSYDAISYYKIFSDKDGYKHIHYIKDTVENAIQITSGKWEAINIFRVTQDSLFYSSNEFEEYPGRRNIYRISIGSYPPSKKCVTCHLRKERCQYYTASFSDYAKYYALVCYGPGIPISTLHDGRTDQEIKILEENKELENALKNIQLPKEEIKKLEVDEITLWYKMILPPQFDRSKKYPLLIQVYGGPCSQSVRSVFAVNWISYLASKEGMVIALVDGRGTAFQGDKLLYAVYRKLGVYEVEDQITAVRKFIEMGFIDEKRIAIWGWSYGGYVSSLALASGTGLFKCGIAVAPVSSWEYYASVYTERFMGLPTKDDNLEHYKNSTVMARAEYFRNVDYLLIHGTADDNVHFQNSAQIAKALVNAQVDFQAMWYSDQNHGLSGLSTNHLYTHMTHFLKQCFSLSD
Method in brief: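 FAP (5 ng/well) preincubated 10 min at RT with peptide (10^−6 to 10^−12), then 50 μM Z-GP-AMC added for 1 h at RT, protected from light. Buffer 50 mM Tris-HCl, 1 M NaCl, 1 mg/mL BSA, pH 7.5; fluorescence at ex/em 360/460. IC50 from non-linear regression, converted to Ki via Cheng-Prusoff using known substrate Km.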

mouse FAP = biological target: T2, mouse FAP (Mus musculus, UniProt P97321); experiment: Enzyme inhibition assay, binding specificity of VMT-FAP-2-59 (Example 3); assay type: biochemical; conditions: 50 μM Z-GP-AMC
T2 sequence (P97321 1-761): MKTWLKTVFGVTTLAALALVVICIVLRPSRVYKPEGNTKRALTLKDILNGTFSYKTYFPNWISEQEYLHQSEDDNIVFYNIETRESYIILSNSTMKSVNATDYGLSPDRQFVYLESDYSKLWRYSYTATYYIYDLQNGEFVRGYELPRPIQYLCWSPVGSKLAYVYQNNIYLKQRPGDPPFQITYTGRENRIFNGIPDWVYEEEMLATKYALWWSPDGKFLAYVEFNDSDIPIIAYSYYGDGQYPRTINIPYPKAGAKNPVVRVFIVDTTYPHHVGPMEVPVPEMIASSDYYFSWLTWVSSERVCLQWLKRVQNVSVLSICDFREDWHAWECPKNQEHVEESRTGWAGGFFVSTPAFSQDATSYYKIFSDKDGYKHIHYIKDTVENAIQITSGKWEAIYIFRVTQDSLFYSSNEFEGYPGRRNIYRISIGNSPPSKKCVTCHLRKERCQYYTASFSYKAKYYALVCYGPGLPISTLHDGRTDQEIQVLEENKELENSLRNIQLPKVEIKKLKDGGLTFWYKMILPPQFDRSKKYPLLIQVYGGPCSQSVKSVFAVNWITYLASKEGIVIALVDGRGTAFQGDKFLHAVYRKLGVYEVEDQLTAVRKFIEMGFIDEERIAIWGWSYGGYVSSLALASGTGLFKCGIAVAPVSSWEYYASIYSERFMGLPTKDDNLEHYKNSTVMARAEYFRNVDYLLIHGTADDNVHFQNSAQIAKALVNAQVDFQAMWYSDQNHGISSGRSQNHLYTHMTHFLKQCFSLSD
Experimental: The enzyme inhibition assay was performed to determine inhibitor constant (i.e., Ki) values against human FAP, mouse FAP, human dipeptidyl peptidase 4 (DPPIV) and human prolyl endopeptidase (PREP). Z-GP-AMC was used as substrate for human FAP, mouse FAP and human PREP. GP-AMC was used as substrate for human DPPIV. To perform the assay, VMT-FAP-2-59 at varying concentrations (i.e. 10^−6 to 10^−12) were incubated with 5 ng hFAP, 5 ng mFAP, 2.5 ng DPPIV, or 5 ng PREP in a black 96-well plate for 10 minutes at RT on a shaker plate. The substrate was added to give a final concentration of 50 μM for Z-GP-AMC and GP-AMC. The total reaction volume per well was 100 μL The reaction was allowed to incubate at RT on a shaker plate for 1 hour protected from light, and then fluorescence was read with a BioTek Synergy LX plate reader at an ex/em (360/40 and 460/40). Experiments were performed in at least duplicate. Buffer only, buffer/enzymes, buffer/substrate and enzyme only were included as controls. Data was plotted in GraphPad Prism and non-linear regression used to calculate IC50 values. Binding kinetics (Kd) of VMT-FAP-2-59 against human FAP, human DPPIV and human PREP were also determined by grating-coupled interferometry (GCI). hFAP, hDPPIV and hPREP proteins were fixed on PCH (N=3) chips or PCP (N=2). […] On PCP chips, binding affinity of VMT-FAP-2-29 to hFAP was determined from 39 pM to 20 nM. Binding affinity to hDPPIV and hPREP was determined at concentration from 39 pM to 50 nM.

## C[C@@H](O)[C@@H]1NC(=O)[C@@H](NC(=O)CCOCCOCCNC(=O)CN2CCN(CC(=O)O)CCN(CC(N)=O)CCN(CC(=O)O)CC2)CSCc2ccccc2CSC[C@@H](C(N)=O)NC(=O)[C@H](Cc2c[nH]c3ccccc23)NC(=O)[C@H](Cc2c[nH]c3ccccc23)NC(=O)[C@H](CCC(N)=O)NC(=O)[C@H](CCC(=O)O)NC(=O)[C@H](Cc2c[nH]c3ccccc23)NC(=O)[C@@H]2CCCN2C1=O [VMT-FAP-2-59, PSC-PEG2-[C(oXdB)TPWEQWWC]-NH2] ({X1-PEG2}-CTPWEQWWC-NH2; linker 1-9 via oXylylene)
[1]
  Ki: 0.36 nM
Mouse FAP
  Ki: 4.2 nM
